One data set addresses T1, human MR (Homo sapiens, UniProt P08235).
T1 construct: The full length human MR gene is cloned from a human kidney or human brain cDNA library; inferred from own knowledge of the pAcHLT vector (N); made in house; host or cells: Sf9 insect cells (baculovirus)
T1 sequence (P08235 1-984): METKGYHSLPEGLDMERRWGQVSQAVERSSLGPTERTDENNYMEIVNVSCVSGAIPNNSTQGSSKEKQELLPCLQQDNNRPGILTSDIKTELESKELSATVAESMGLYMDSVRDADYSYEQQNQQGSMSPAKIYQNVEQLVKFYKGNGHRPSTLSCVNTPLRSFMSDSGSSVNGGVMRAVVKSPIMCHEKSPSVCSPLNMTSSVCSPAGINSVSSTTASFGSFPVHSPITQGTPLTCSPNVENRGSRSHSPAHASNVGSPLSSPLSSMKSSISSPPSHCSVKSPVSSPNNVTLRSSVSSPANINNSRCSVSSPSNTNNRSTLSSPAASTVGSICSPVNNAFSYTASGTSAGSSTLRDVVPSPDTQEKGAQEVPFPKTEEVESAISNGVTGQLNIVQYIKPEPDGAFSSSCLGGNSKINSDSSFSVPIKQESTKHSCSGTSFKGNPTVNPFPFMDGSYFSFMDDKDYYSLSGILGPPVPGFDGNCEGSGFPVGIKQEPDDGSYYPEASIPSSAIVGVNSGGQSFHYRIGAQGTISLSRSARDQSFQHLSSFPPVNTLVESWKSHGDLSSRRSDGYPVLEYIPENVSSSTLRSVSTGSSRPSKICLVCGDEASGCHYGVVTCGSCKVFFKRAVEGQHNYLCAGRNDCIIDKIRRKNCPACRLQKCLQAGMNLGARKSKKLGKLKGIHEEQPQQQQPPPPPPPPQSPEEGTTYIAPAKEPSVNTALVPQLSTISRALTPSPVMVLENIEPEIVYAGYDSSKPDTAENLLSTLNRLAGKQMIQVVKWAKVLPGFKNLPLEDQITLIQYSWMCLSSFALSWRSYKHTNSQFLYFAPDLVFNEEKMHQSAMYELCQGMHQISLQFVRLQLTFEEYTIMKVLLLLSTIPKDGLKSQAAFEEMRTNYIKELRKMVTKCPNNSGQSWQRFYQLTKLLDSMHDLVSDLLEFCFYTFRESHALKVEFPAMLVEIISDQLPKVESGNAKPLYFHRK
Description: Mineralocorticoid Receptor Binding Assay (Method 1), [3H]-aldosterone competition. The following applies: 0.5 nM [3H]-aldosterone, human MR expressed in Sf9 cells. The essentials: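 Full-length human MR expressed in Sf9 cells via baculovirus; lysate supernatant (about 20-25 μg protein) incubated with 0.5 nM [3H]-aldosterone and test compound for about 16 h at 4° C. Buffer was Tris/molybdate/phosphate/pyrophosphate with 10% glycerol, pH 7.5; filter-bound complex counted by scintillation.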

For a further data set, the target named is T2, glucocorticoid receptor (Homo sapiens, UniProt P04150).
T2 construct: containing 50-200 ug of A549 cell extract and 1.86 nM; host or cells: A549 human lung epithelial cells
T2 sequence (P04150 1-777): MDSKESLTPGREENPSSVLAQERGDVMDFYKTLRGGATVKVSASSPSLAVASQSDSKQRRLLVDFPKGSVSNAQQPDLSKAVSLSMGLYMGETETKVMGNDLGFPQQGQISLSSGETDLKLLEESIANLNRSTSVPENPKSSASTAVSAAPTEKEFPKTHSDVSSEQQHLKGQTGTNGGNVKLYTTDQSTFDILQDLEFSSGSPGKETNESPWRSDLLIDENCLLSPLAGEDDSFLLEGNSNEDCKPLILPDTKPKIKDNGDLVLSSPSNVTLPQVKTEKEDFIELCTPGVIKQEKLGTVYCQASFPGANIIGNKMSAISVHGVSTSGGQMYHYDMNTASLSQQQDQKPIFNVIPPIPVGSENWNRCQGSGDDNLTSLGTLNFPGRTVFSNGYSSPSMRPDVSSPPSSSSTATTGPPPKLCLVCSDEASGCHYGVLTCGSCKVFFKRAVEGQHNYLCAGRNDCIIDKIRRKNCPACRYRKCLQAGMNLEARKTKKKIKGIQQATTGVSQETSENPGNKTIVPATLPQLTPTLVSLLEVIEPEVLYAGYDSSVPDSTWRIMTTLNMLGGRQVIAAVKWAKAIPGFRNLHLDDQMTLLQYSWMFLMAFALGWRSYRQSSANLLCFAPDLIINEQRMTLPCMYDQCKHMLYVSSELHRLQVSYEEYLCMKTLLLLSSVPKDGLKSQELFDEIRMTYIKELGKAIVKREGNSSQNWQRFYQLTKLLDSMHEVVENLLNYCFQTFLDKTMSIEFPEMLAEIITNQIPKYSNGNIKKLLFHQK
Description: Glucocorticoid Receptor Binding Assay (Method 1), [3H]-dexamethasone competition, A549 cell extract. The note with it: 1.86 nM [3H]-dexamethasone, read-out: GR Ki (nM) Method 1. The essentials:
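Receptor source: sonicated extract of human A549 lung epithelial cells in glycerol/Tris-HCl pH 7.2 buffer with sodium molybdate. [3H]-dexamethasone competition run 16 h at 4 °C; unbound radioligand stripped with dextran-coated charcoal (8 min, RT) and receptor-bound radioactivity quantified by scintillation counting.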

Data set [1] concerns the target T3, human GR (glucocorticoid receptor) (Homo sapiens, UniProt P04150).
T3 construct: expressed in transfected cells; host or cells: 293 cells
T3 sequence (P04150 1-777): T2 sequence (P04150 1-777)
The data set is described as follows: Alternative Binding Assay Protocol (Method 2), 293-GR lysate, 3H-dexamethasone competition. The following applies: 0.3 nM 3H-dexamethasone. Here is the method: Alternative Binding Assay Protocol for MR, GR, AR, and PR (Method 2):
Cell lysates from 293 cells overexpressing human GR (glucocorticoid receptor), AR (androgen receptor), MR (mineralocorticoid receptor) or PR (progesterone-receptor) are used for competition binding assays to determine Ki values for test compounds. […] Competing compounds are added at various concentraions in half-log increments. Non-specific binding is determined in the presence of 500 nM dexamethasone for GR binding, 500 nM aldosterone for MR binding, or 500 nM methyltrienolone for AR and PR binding. The binding reaction (140 μl) is incubated for overnight at 4° C., then 70 μl of cold charcoal-dextran buffer (containing per 50 ml of assay buffer, 0.75 g of charcoal and 0.25 g of dextran) is added to each reaction. Plates are mixed 8 minutes on an orbital shaker at 4° C. Plates are then centrifuged at 3,000 rpm at 4° C. for 10 minutes. An aliquot of 120 μl of the mix is transferred to another 96-well plate and 175 μl of Wallac Optiphase “Hisafe 3” scintillation fluid is added to each well. Plates are sealed and shaken vigorously on an orbital shaker. After an incubation of 2 hrs, plates are read in a Wallac Microbeta counter. […] The Kd for ^3H-dexamethasone for GR binding, ^3H-methyltrienolone for AR binding, ^3H-aldosterone for MR binding, or ^3H-methyltrienolone for PR binding, is determined by saturation binding. The IC50 values for compounds are converted to Ki using Cheng-Prusoff equation and the Kd determined by saturation binding assay.

In general, Ki refers to a dissociation constant, usually derived from enzyme kinetics or from competition with a known ligand. In general, melting point refers to the temperature of the solid-liquid transition. Regarding `CCC(CC)(c1ccc(F)cc1)c1c[nH]c2c(NS(C)(=O)=O)cccc12` [Example 59, N-{3-[1-Ethyl-1-(4-fluoro-phenyl)-propyl]-1H-indol-7-yl}-methanesulfonamide], the melting point lay within 137 to 138 °C. Also, the Ki at human MR was < 500 nM. Also, the Ki at glucocorticoid receptor was < 500 nM.
As to `CCC(CC)(c1ccc(F)cc1F)c1c[nH]c2c(NS(C)(=O)=O)cccc12` [Example 62, N-{3-[1-(2,4-Difluoro-phenyl)-1-ethyl-propyl]-1H-indol-7-yl}-methanesulfonamide], the melting point lay in the range of 144 to 147 °C. In addition, the Ki at human MR is < 500 nM. Moreover, the inhibition constant (Ki) on glucocorticoid receptor was < 500 nM.
For `CCC(CC)(c1ccc2[nH]cnc2c1)c1c[nH]c2c(NS(C)(=O)=O)cccc12` [Example 134, N-{3-[1-(1H-Benzoimidazol-5-yl)-1-ethyl-propyl]-1H-indol-7-yl}-methanesulfonamide], the melting point was 150 to 165 °C. Besides, the inhibition constant (Ki) on human MR was < 500 nM. Moreover, in data set [1], the Ki is < 500 nM.
`CCC(CC)(c1ccc2sccc2c1)c1c[nH]c2c(NS(C)(=O)=O)cccc12` [Example 135, N-[3-(1-Benzo[b]thiophen-5-yl-1-ethyl-propyl)-1H-indol-7-yl]-methanesulfonamide] registered a melting point of 85 to 95 °C. At human MR, the inhibitory constant (Ki) is < 500 nM. Moreover, the inhibition constant (Ki) in data set [1] was < 500 nM.
Molecule `CCC(CC)(c1ccc2nc(C)oc2c1)c1c[nH]c2c(NS(C)(=O)=O)cccc12` [Example 136, N-{3-[1-Ethyl-1-(2-methyl-benzooxazol-6-yl)-propyl]-1H-indol-7-yl}-methanesulfonamide] displayed a melting point of 98 to 105 °C. Besides, the Ki at human MR is < 500 nM. Also, the Ki in data set [1] is < 1000 nM.
`CCC(CC)(c1ccc2ncoc2c1)c1c[nH]c2c(NS(C)(=O)=O)cccc12` [Example 137, N-[3-(1-Benzooxazol-6-yl-1-ethyl-propyl)-1H-indol-7-yl]-methanesulfonamide] yielded a melting point of 211 to 213 °C. At human MR, the Ki is < 500 nM. Also, the Ki in data set [1] is < 500 nM.
Molecule `CCC(CC)(c1ccc2[nH]ncc2c1)c1c[nH]c2c(NS(C)(=O)=O)cccc12` [Example 138, N-{3-[1-Ethyl-1-(1H-indazol-5-yl)-propyl]-1H-indol-7-yl}-methanesulfonamide] gave a melting point of 123 to 128 °C. The inhibitory constant (Ki) at human MR is < 500 nM. In addition, the Ki in data set [1] is < 500 nM.
Molecule `CCC(CC)(c1ccc2ccsc2c1)c1c[nH]c2c(NS(C)(=O)=O)cccc12` [Example 139, N-[3-(1-Benzo[b]thiophen-6-yl-1-ethyl-propyl)-1H-indol-7-yl]-methanesulfonamide] had a melting point of 97 to 107 °C. Further, on human MR, the Ki was < 500 nM. In addition, the Ki in data set [1] was < 500 nM.
As for `CCC(CC)(c1ccc2sc(N)nc2c1)c1c[nH]c2c(NS(C)(=O)=O)cccc12` [Example 141, N-{3-[1-(2-Amino-benzothiazol-5-yl)-1-ethyl-propyl]-1H-indol-7-yl}-methanesulfonamide], the melting point was 260 to 263 °C (dec.). In addition, the inhibitory constant (Ki) at human MR was < 500 nM. The inhibition constant (Ki) in data set [1] was < 500 nM.
The molecule `CCC(CC)(c1ccc2ocnc2c1)c1c[nH]c2c(NS(C)(=O)=O)cccc12` [Example 146, N-[3-(1-Benzooxazol-5-yl-1-ethyl-propyl)-1H-indol-7-yl]-methanesulfonamide] displayed a melting point of 132 to 135 °C. For the same molecule, the inhibitory constant (Ki) on human MR is < 500 nM. Also, the Ki in data set [1] is < 500 nM.
In the case of `CCC(CC)(c1ccc2nc(NC(C)=O)sc2c1)c1c[nH]c2c(NS(C)(=O)=O)cccc12` [Example 147, N-{6-[1-Ethyl-1-(7-methanesulfonylamino-1H-indol-3-yl)-propyl]-benzothiazol-2-yl}-acetamide], the melting point was 286 to 288 °C. Also, on human MR, the inhibition constant (Ki) is < 500 nM. The Ki in data set [1] was < 500 nM.
With `CCC(CC)(c1ccc2nc(Cl)sc2c1)c1c[nH]c2c(NS(C)(=O)=O)cccc12` [Example 148, N-{3-[1-(2-Chloro-benzothiazol-6-yl)-1-ethyl-propyl]-1H-indol-7-yl}-methanesulfonamide], the melting point was 180 to 190 °C. The Ki on human MR is < 500 nM. Further, the Ki in data set [1] was < 500 nM.
For `CCC(CC)(c1ccc2[nH]nnc2c1)c1c[nH]c2c(NS(C)(=O)=O)cccc12` [Example 153, N-{3-[1-(3H-Benzotriazol-5-yl)-1-ethyl-propyl]-1H-indol-7-yl}-methanesulfonamide], the melting point lay in the range of 165 to 172 °C. In addition, the Ki at human MR is < 500 nM. Moreover, the inhibition constant Ki in data set [1] is < 500 nM.
As to `CCC(CC)(c1ccc2nc(C)[nH]c2c1)c1c[nH]c2c(NS(C)(=O)=O)cccc12` [Example 154, N-{3-[1-Ethyl-1-(2-methyl-3H-benzoimidazol-5-yl)-propyl]-1H-indol-7-yl}-methanesulfonamide], the melting point was 188 to 192 °C. Moreover, the inhibition constant Ki in data set [1] was < 500 nM.
For `CCC(CC)(c1ccc2ccn(C(C)=O)c2c1)c1c[nH]c2c(NS(C)(=O)=O)cccc12` [Example 158, N-{3-[1-(1-Acetyl-1H-indol-6-yl)-1-ethyl-propyl]-1H-indol-7-yl}-methanesulfonamide] the same measures were 216 to 218 °C and < 500 nM.
In the case of `CCC(CC)(c1ccc2sc(Cl)nc2c1)c1c[nH]c2c(NS(C)(=O)=O)cccc12` [Example 161, N-{3-[1-(2-Chloro-benzothiazol-5-yl)-1-ethyl-propyl]-1H-indol-7-yl}-methanesulfonamide], the melting point lay within 217 to 220 °C. The inhibitory constant (Ki) on human MR is < 500 nM. The Ki in data set [1] was < 500 nM.

These data come from patent US20060235222A1, “Indole-derivative modulators of steroid hormone nuclear receptors” (ELI LILLY AND COMPANY, priority 2003, published 2006).
